# Measured values reported in patent publication US7214675B2, “Urea substituted imidazoquinoline ethers” (3M Innovative Properties Company, priority 2000, dated 2007).
# How the values were obtained:
# [1] = test system: tumor necrosis factor (α) induction in human peripheral blood mononuclear cells (PBMC); experiment: Cytokine induction in human cells: tumor necrosis factor (α) secreted by PBMC, ELISA or IGEN assay; format: cell-based; set-up: key to Lowest Effective Concentration (μM) Tumor Necrosis Factor: A “*” indicates that no induction was seen at any of the tested concentrations; generally the highest concentration tested was 10 or 30 μM; settings: lowest concentration found to induce tumor necrosis factor, incubated 18 to 24 hours at 37° C.
# Excerpt: (§1) An in vitro human blood cell system is used to assess cytokine induction. Activity is based on the measurement of interferon and tumor necrosis factor (α) (IFN and TNF, respectively) secreted into culture media as described by Testerman et. al. In “Cytokine Induction by the Immunomodulators Imiquimod and S-27609”, Journal of Leukocyte Biology, 58, 365–372 (September, 1995).
# (§2) Whole blood from healthy human donors is collected by venipuncture into EDTA vacutainer tubes. Peripheral blood mononuclear cells (PBMC) are separated from whole blood by density gradient centrifugation using Histopaque®-1077. Blood is diluted 1:1 with Dulbecco's Phosphate Buffered Saline (DPBS) or Hank's Balanced Salts Solution (HBSS). The PBMC layer is collected and washed twice with DPBS or HBSS and resuspended at 4×10^6 cells/mL in RPMI complete. The PBMC suspension is added to 48 well flat bottom sterile tissue culture plates (Costar, Cambridge, Mass. or Becton Dickinson Labware, Lincoln Park, N.J.) containing an equal volume of RPMI complete media containing test compound.
# (§3) The compounds are solubilized in dimethyl sulfoxide (DMSO). The DMSO concentration should not exceed a final concentration of 1% for addition to the culture wells. The compounds are generally tested at concentrations ranging from 30–0.014 μM.
# (§4) The solution of test compound is added at 60 μM to the first well containing RPMI complete and serial 3 fold dilutions are made in the wells. The PBMC suspension is then added to the wells in an equal volume, bringing the test compound concentrations to the desired range (30–0.014 μM). The final concentration of PBMC suspension is 2×10^6 cells/mL. The plates are covered with sterile plastic lids, mixed gently and then incubated for 18 to 24 hours at 37° C. in a 5% carbon dioxide atmosphere.
# (§5) Following incubation the plates are centrifuged for 10 minutes at 1000 rpm (˜200×g) at 4° C. The cell-free culture supernatant is removed with a sterile polypropylene pipet and transferred to sterile polypropylene tubes. Samples are maintained at −30 to −70° C. until analysis. The samples are analyzed for interferon (α) by ELISA and for tumor necrosis factor (α) by ELISA or IGEN Assay
# Tumor necrosis factor (α) (TNF) concentration is determined using ELISA kits available from Biosource International, Camarillo, Calif. Alternately, the TNF concentration can be determined by Origen® M-Series Immunoassay and read on an IGEN M-8 analyzer from IGEN International, Gaithersburg, Md. The immunoassay uses a human TNF capture and detection antibody pair from Biosource International, Camarillo, Calif. Results are expressed in pg/mL.
# (§6) The table below lists the lowest concentration found to induce interferon and the lowest concentration found to induce tumor necrosis factor for each compound.
# [2] = test system: interferon (α) induction in human peripheral blood mononuclear cells (PBMC); experiment: Cytokine induction in human cells: interferon (α) secreted by PBMC, ELISA; format: cell-based; set-up: key to Lowest Effective Concentration (μM) Interferon: A “*” indicates that no induction was seen at any of the tested concentrations; generally the highest concentration tested was 10 or 30 μM; settings: lowest concentration found to induce interferon, incubated 18 to 24 hours at 37° C.
# Excerpt: as §1, §2, §3, §4, §5
# Interferon (α) concentration is determined by ELISA using a Human Multi-Species kit from PBL Biomedical Laboratories, New Brunswick, N.J. Results are expressed in pg/mL.
# as §6
Compound,minimal effective concentration [1] [µM],minimal effective concentration [2] [µM],melting point [°C],Lowest Effective Concentration (μM) Tumor Necrosis Factor [1],Lowest Effective Concentration (μM) Interferon [2]
CCC(COCCC1CCN(C(=O)Nc2cccc(OC)c2)CC1)n1cnc2c(N)nc3ccccc3c21 (centres unmarked) [Example 28],1,0.1,–,–,–
"CCc1nc2c(N)nc3ccccc3c2n1CCOCCNC(=O)NC1CCCCC1 [Example 51, N-{2-[2-(4-amino-2-ethyl-1H-imidazo[4,5-c]quinolin-1-yl)ethoxy]ethyl}-N′-cyclohexylurea]",–,–,198 to 200,–,–
"COCCc1nc2c(N)nc3c(c2n1CCOCCN(C)C(=O)Nc1ccccc1)CCCC3 [Example 4, N-(2-{2-[4-amino-2-(2-methoxyethyl)-6,7,8,9-tetrahydro-1H-imidazo[4,5-c]quinolin-1-yl]ethoxy}ethyl)-N-methyl-N′-phenylurea]",–,–,167.7 to 170,–,–
CCC(COCCC1CCN(C(=O)N[C@@H]2C[C@H]2c2ccccc2)CC1)n1cnc2c(N)nc3ccccc3c21 (some centres unmarked) [Example 29],1,0.1,–,–,–
CCCCc1nc2c(N)nc3ccccc3c2n1CCOCCNC(=O)NC(C)(C)C [Example 8],10,0.0001,–,–,–
CCCCc1nc2c(N)nc3ccccc3c2n1CCOCCNC(=O)NC1CCCCC1 [Example 12],1,0.0001,–,–,–
"COCCc1nc2c(N)nc3ccccc3c2n1CCOCCN(C)C(=O)N1CCOCC1 [Example 6, N-(2-{2-[4-amino-2-(2-methoxyethyl)-1H-imidazo[4,5-c]quinolin-1-yl]ethoxy}ethyl)-N-methylmorpholine-4-carboxamide]",–,–,121.8 to 122.3,–,–
CCCCc1nc2c(N)nc3ccccc3c2n1CCOCCNC(=O)NS(=O)(=O)c1ccc(C)cc1 [Example 20],10,0.01,–,–,–
CCCCc1nc2c(N)nc3ccccc3c2n1CCOCCNC(=O)N1CCOCC1 [Example 11],0.1,0.0001,–,–,–
CCCCc1nc2c(N)nc3ccccc3c2n1CCOCCNC(=O)Nc1ccc(OC)cc1OC [Example 18],–,1,–,*,–
Nc1nc2ccccc2c2c1ncn2CCOCCNC(=O)Nc1ccccc1 [Example 38],10,10,–,–,–
COc1cccc(NC(=O)NCCOCCn2cnc3c(N)nc4ccccc4c32)c1 [Example 41],10,10,–,–,–
CCC(COCCC1CCN(C(=O)Nc2cccc(C(C)=O)c2)CC1)n1cnc2c(N)nc3ccccc3c21 (centres unmarked) [Example 30],1,1,–,–,–
CCCCc1nc2c(N)nc3ccccc3c2n1CCOCCNC(=O)Nc1ccccc1 [Example 10],10,0.0001,–,–,–
"COCCc1nc2c(N)nc3c(c2n1CCOCCNC(=O)Nc1ccccc1)CCCC3 [Example 2, N-(2-{2-[4-amino-2-(2-methoxyethyl)-6,7,8,9-tetrahydro-1H-imidazo[4,5-c]quinolin-1-yl]ethoxy}ethyl)-N′-phenylurea]",–,–,180 to 182,–,–
Nc1nc2ccccc2c2c1ncn2CCOCCNC(=O)NS(=O)(=O)c1ccccc1 [Example 44],–,–,–,*,*
CCC(COCCC1CCN(C(=O)NS(=O)(=O)c2ccc(C)cc2)CC1)n1cnc2c(N)nc3ccccc3c21 (centres unmarked) [Example 33],10,1,–,–,–
CCC(COCCC1CCN(C(=O)Nc2cccc(SC)c2)CC1)n1cnc2c(N)nc3ccccc3c21 (centres unmarked) [Example 31],10,1,–,–,–
CCC(COCCC1CCN(C(=O)Nc2cccc(C#N)c2)CC1)n1cnc2c(N)nc3ccccc3c21 (centres unmarked) [Example 27],1,0.1,–,–,–
Nc1nc2ccccc2c2c1ncn2CCOCCNC(=O)NC1CCCCC1 [Example 39],10,10,–,–,–
CCC(COCCC1CCN(C(=O)N2CCOCC2)CC1)n1cnc2c(N)nc3ccccc3c21 (centres unmarked) [Example 25],1,0.1,–,–,–

Compound,minimal effective concentration [1] [µM],minimal effective concentration [2] [µM],melting point [°C],Lowest Effective Concentration (μM) Tumor Necrosis Factor [1],Lowest Effective Concentration (μM) Interferon [2]
CCC(COCCC1CCN(C(=O)NC2CCCCC2)CC1)n1cnc2c(N)nc3ccccc3c21 (centres unmarked) [Example 26],1,0.1,–,–,–
CCCCc1nc2c(N)nc3ccccc3c2n1CCOCCNC(=O)NS(=O)(=O)c1ccc(Cl)cc1 [Example 21],10,1,–,–,–
CCC(COCCC1CCN(C(=O)Nc2ccc(OC)cc2OC)CC1)n1cnc2c(N)nc3ccccc3c21 (centres unmarked) [Example 32],1,0.1,–,–,–
CCCCc1nc2c(N)nc3ccccc3c2n1CCOCCNC(=O)N[C@H]1C[C@@H]1c1ccccc1 [Example 15],0.1,0.0001,–,–,–
CCCCc1nc2c(N)nc3ccccc3c2n1CCOCCNC(=O)NC(C)C [Example 7],10,0.0001,–,–,–
CCCCc1nc2c(N)nc3ccccc3c2n1CCOCCNC(=O)Nc1ccc(N(C)C)cc1 [Example 16],10,0.0001,–,–,–
CCCCc1nc2c(N)nc3ccccc3c2n1CCOCCNC(=O)NS(=O)(=O)c1ccccc1 [Example 19],10,0.1,–,–,–
COc1ccc(NC(=O)NCCOCCn2cnc3c(N)nc4ccccc4c32)c(OC)c1 [Example 43],10,10,–,–,–
CCCCc1nc2c(N)nc3ccccc3c2n1CCOCCNC(=O)Nc1cccc(OC)c1 [Example 14],10,0.0001,–,–,–
N#Cc1cccc(NC(=O)NCCOCCn2cnc3c(N)nc4ccccc4c32)c1 [Example 40],10,10,–,–,–
CCCCNC(=O)N1CCC(CCOCC(CC)n2cnc3c(N)nc4ccccc4c32)CC1 (centres unmarked) [Example 23],1,1,–,–,–
CCC(COCCC1CCN(C(=O)NC(C)C)CC1)n1cnc2c(N)nc3ccccc3c21 (centres unmarked) [Example 22],1,0.1,–,–,–
CC(C)(C)NC(=O)NCCOCCn1cnc2c(N)nc3ccccc3c21 [Example 37],10,10,–,–,–
Nc1nc2ccccc2c2c1ncn2CCOCCNC(=O)N[C@@H]1C[C@H]1c1ccccc1 [Example 42],–,10,–,*,–
CCC(COCCC1CCN(C(=S)Nc2ccccc2)CC1)n1cnc2c(N)nc3ccccc3c21 (centres unmarked) [Example 36],–,0.1,–,*,–
CCCCc1nc2c(N)nc3ccccc3c2n1CCOCCNC(=O)Nc1cccc(C#N)c1 [Example 13],1,0.0001,–,–,–
CCC(COCCC1CCN(C(=O)Nc2ccccc2)CC1)n1cnc2c(N)nc3ccccc3c21 (centres unmarked) [Example 24],1,0.1,–,–,–
CCCCNC(=O)NCCOCCn1c(CCCC)nc2c(N)nc3ccccc3c21 [Example 9],1,0.0001,–,–,–
CCC(COCCC1CCN(C(=O)NS(=O)(=O)c2ccc(Cl)cc2)CC1)n1cnc2c(N)nc3ccccc3c21 (centres unmarked) [Example 34],10,1,–,–,–
CCC(COCCC1CCN(C(=S)NC(=O)c2ccco2)CC1)n1cnc2c(N)nc3ccccc3c21 (centres unmarked) [Example 35],1,1,–,–,–
CCCCc1nc2c(N)nc3ccccc3c2n1CCOCCNC(=O)Nc1cccc(SC)c1 [Example 17],10,–,–,–,*
